The results in this text go back to KR20210050472A, “에독사반염 및 이를 포함하는 약제학적 조성물” (priority 2019, dated 2021).

Like-named read-outs stand apart in the source and are kept apart here.

A short description of data set [1]: Heat stability test (Test Example 1), crystal form retention at 40±2℃, 75±5% RH. The format is physicochemical. The conditions noted are these: for stability of crystal form: 40℃/75% RH.
Data set [2] is described as follows: Stability test in pH solutions (Test Example 2), related substances by HPLC. As to conditions: for degraded: read-out: amount of related substances generated. It counts as physicochemical.
Setting [3] is: 40℃, 75% RH, from week 8 of the stability test.

Turning to `CN1CCc2nc(C(=O)N[C@@H]3C[C@@H](C(=O)N(C)C)CC[C@@H]3NC(=O)C(=O)Nc3ccc(Cl)cn3)sc2C1` [벤젠술폰산염 결정형 Ⅰ형, 에독사반 벤젠술폰산염 결정형 Ⅰ형], the “stability of crystal form” value in data set [1] (8 weeks, 벤젠술폰산염) is reported as “결정형 유지”; in data set [1] (16 weeks) it was “결정형 유지”; in data set [1] (24 weeks, 벤젠술폰산염), “결정형 유지”.

Take `CN1CCc2nc(C(=O)N[C@@H]3C[C@@H](C(=O)N(C)C)CC[C@@H]3NC(=O)C(=O)Nc3ccc(Cl)cn3)sc2C1` [벤젠술폰산염 결정형 Ⅱ형, 에독사반 벤젠술폰산염 결정형 Ⅱ형, reference compound]: in data set [1] (setting [3]), the “change of crystal form” value is on record as “일부가 결정형 Ⅰ으로 변화” and the “change of endothermic point by differential scanning calorimetry” value is listed as “결정형 Ⅰ형의 흡열점이 관찰”. In data set [1] (8 weeks, 벤젠술폰산염), the “stability of crystal form” value is “일부 결정형 Ⅰ형으로 변화”.

On to `CN1CCc2nc(C(=O)N[C@@H]3C[C@@H](C(=O)N(C)C)CC[C@@H]3NC(=O)C(=O)Nc3ccc(Cl)cn3)sc2C1` [말산염 결정형, 에독사반 말산염 결정형, reference compound], for which, in data set [1] (40℃, 75% RH, week 24), the “change in appearance and powder X-ray diffraction values” was “성상 변화 및 분말 X선 회절 값이 변화”. The “stability of crystal form” value in data set [1] (8 weeks, 말산염) is given as “결정형 유지”; in data set [1] (24 weeks, 말산염), “결정형 변화”.

Take `CN1CCc2nc(C(=O)N[C@@H]3C[C@@H](C(=O)N(C)C)CC[C@@H]3NC(=O)C(=O)Nc3ccc(Cl)cn3)sc2C1` [에디실산염 수화물 결정형, 에독사반 에디실산염 수화물 결정형]: the “change in crystal form and appearance” value in data set [1] (40℃, 75% RH, over 24 weeks) is recorded as “결정형의 변화 및 성상의 변화가 발생하지 않아”. Moreover, the “stability of crystal form” value in data set [1] (8 weeks, 에디실산염 수화물) is given as “결정형 유지”; in data set [1] (16 weeks) it was “결정형 유지”; in data set [1] (24 weeks, 에디실산염 수화물), “결정형 유지”. Besides, the degraded in data set [2] (distilled water (DW)) came to 0.18%; in data set [2] (pH 1.2) it was 19.3%; in data set [2] (pH 7.8), 11.4%. Moreover, the “total related substances generated, reduction versus tosylate hydrate” value in data set [2] (pH 7.8 solution) is reported as around 4.5%. Also, in data set [2] (solutions of DW, pH 1.2 and pH 7.8), the “total related substances generated, compared with tosylate hydrate” value is “총유연물질이 적게 발생”.
